Values quoted from earlier work, collected in patent US20220125854A1, “PREPARATION AND EXTENDED CULTURE OF VASCULAR ENDOTHELIAL PROGENITOR CELL” (PUBLIC UNIVERSITY CORPORATION NAGOYA CITY UNIVERSITY, priority 2019, published 2022).

Experiments:
Conditions in all cases: report
[1] = tested on: HUVECs
[2] = tested on: ECs derived from ES cells
[3] = tested on: ECs derived from iPS cells

Q: Which “proliferation potency of HUVECs” value [1] does the source give for `Cc1c[nH]c(-c2cnc(NCCNc3ccc(C#N)cn3)nc2-c2ccc(Cl)cc2Cl)n1` [CHIR 99021] here?
A: enhances the proliferation potency

Q: Which “proliferation potency of ECs derived from ES cells” value [2] does the source give for `NC(=O)c1ccc(-c2nc(-c3ccccn3)c(-c3ccc4c(c3)OCO4)[nH]2)cc1` [SB 43152] here?
A: enhances the proliferation potency

Q: Which “proliferation potency of ECs derived from iPS cells” value [3] does the source give for `C[C@@H](N)[C@H]1CC[C@H](C(=O)Nc2ccncc2)CC1` [Y-27632] here?
A: enhancing the proliferation potency
